The values that follow come from ChEMBL document CHEMBL3832022, “DailyMed|setid=50ee3815-7675-4bc0-a88a-ab3886aea795 | ESTRING - estradiol ring|Physicians Total Care, Inc”.

In general, Cmax refers to the highest concentration seen after dosing. One may read the Tmax as the time from dosing to the highest level.

One data set is filed under the species Homo sapiens. The data set is described as follows: (§1) Mean steady-state pharmacokinetic parameters for Estradiol evaluated after a single dose of 2 mg of Estradiol as estridiol vaginal ring. The format is ADME, organism-based. Set-up: dose 2 mg, route vaginal. As to conditions: in vivo, other, dosed compound id 17, dosed compound name ESTRADIOL, gender female, regimen Single dose, sampling time1 12 weeks, tissue Serum.

The nature of data set [1]: as §1. The format is ADME, organism-based. On the set-up: dose 2 mg, route vaginal. The note with it: human, in vivo, dosed compound id 17, dosed compound name ESTRADIOL, gender female, regimen Single dose, sampling time1 12 weeks, tissue Serum.

As to `C[C@]12CC[C@@H]3c4ccc(O)cc4CC[C@H]3[C@@H]1CC[C@@H]2O` [ESTRADIOL], the results for the Cmax (in the data set filed under Homo sapiens; in data set [1] (2 mg)) were 0.0556 ng/mL and 0.0632 ng/mL, respectively. In addition, the time of peak concentration (Tmax) in data set [1] (dose 2 mg, route vaginal) was 30 to 60 min. Also, the concentration at 12 weeks in data set [1] (dose 2 mg, route vaginal, read-out: Css-12w) is 0.008 ng/mL.
